Tests used:
Type in all cases: in vivo
Design in all cases: key: A: Excellent control; B: Partial control; C: No control
[1] = test system: two spotted mite (Tetranychus urticae Koch); assay: Mite Foliage Spray Test; details: 500 ppm foliage spray, six days
Procedure: (§1) Selected species of the new compounds were evaluated to determine their pesticidal activity against mites and certain insects, including anaphid, a caterpillar, a beetle and a fly.
(§2) Suspensions of the test compounds were prepared by dissolving one gram of compound in 50 milliliters of acetone in which had been dissolved 0.1 gram (10 percent of the weight of compound) of an alkylphenoxy polyethoxyethanol surfactant, as an emulsifying or dispersing agent. The resulting solution was mixed into 150 milliliters of water to give roughly 200 milliliters of a suspension containing the compound in finely divided form. The thus-prepared stock suspension contained 0.5 percent by weight of test compound. The test concentrations in parts per million by weight employed in the tests described hereinbelow were obtained by appropriate dilutions of the stock suspension with water. The test procedures were as follows:
Adults and nymphal stages of the two spotted mite (Tetranychus urticae Koch), reared on Tendergreen bean plants at 80±5 per cent relative humidity, were the test organisms. Infested leaves from a stock culture were placed on the primary leaves of two bean plants six to eight inches in height, growing in a two-and-a-half inch clay pot. 150-200 mites, a sufficient number for testing, transferred from the excised leaves to the fresh plants in a period of twenty four hours. Following the twenty four hour transfer period, the excised leaves were removed from the infested plants. The test compounds were formulated by diluting the stock suspension with water to give a suspension with water to give a suspension containing 500 parts of test compound per million parts of final formulation. The potted plants (one pot per compound) were placed on a revolving turntable and sprayed with 100-110 milliliters of test compound formulation by use of a DeVilbiss spray gun set at 40 psig. air pressure. This application, which lasted for 25 seconds, was sufficient to wet the plants to run-off. As a control, 100-110 milliliters of a water solution containing acetone and emulsifier in the same concentrations as the test compound formulation, but containing no test compound, were also sprayed on infested plants. The sprayed plants were held at 80±5 per cent relative humidity for six days, after which a mortality count of motile forms were made. Microscopic examination for motile forms was made on the leaves of the test plants. Any individual which was capable of locomotion upon prodding, was considered living.
(§3) In these tests the pesticidal activity of the compounds against aphid, mite, Southern Armyworm, Mexican Bean Beetle, and house fly was rated as follows: […]

[2] = test system: Mexican bean beetle (Epilachna varivestis, Muls.); assay: Mexican Bean Beetle Leaf Spray Test; details: fourth instar larvae, 500 ppm leaf spray, three days
Procedure: as §1, §2
Mexican Bean Beetle Leaf Spray Test
Fourth instar larvae of the Mexican bean beetle (Epilachna varivestis, Muls.), reared on Tendergreen bean plants at a temperature of 80°±5° F. and 50±5 per cent relative humidity, were the test insects.
The test compounds were formulated by diluting the stock suspension with water to give a suspension containing 500 parts of test compound per million parts of final formulation. Potted Tendergreen bean plants of standard height and age were placed on a revolving turntable and sprayed with 100-110 milliliters of test compound formulation by use of DeVilbiss spray gun set at 10 psig air pressure. This application, which lasted 25 seconds, was sufficient to wet plants to run-off. As a control, 100-110 milliliters of a water-acetone-emulsifier solution containing no test compound were also sprayed on infested plants. When dry, the paired leaves were separated and each was placed in a 9 centimeter Petri dish lined with moistened filter paper. Five randomly selected larvae were introduced into each dish, and the dishes were closed. The closed dishes were labeled and held at a temperature of […]. for three days. Although the larvae could easily consume the leaf within 24 to 48 hours, no more food was added. Larvae which were unable to move the length of the body, even upon stimulation, were considered dead.
as §3

[3] = test system: southern armyworm (Prodenia Eridania, (Cram.)); assay: Southern Armyworm Leaf Spray Test; details: larvae, 500 ppm leaf spray, three days
Procedure: as §1, §2
Southern Armyworm Leaf Spray Test
Larvae of the southern armyworm (Prodenia Eridania, (Cram.), reared on Tendergreen bean plants at a temperature of 80°±5° F. and a relative humidity of 50±5 per cent, constituted the test insects.
The test compounds were formulated by diluting the stock suspension with water to give a suspension containing 500 parts of test compound per million parts of final formulation. Potted Tendergreen bean plants of standard height and age were placed on a revolving turntable and sprayed with […] of test compound formulation by use of a DeVilbiss spray gun set at 10 psig. air pressure.
This application, which lasted 25 seconds, was sufficient to wet plants to run-off. As a control, 100-110 milliliters of a water-acetone-emulsifier solution containing no test compound were also sprayed on infested plants. When dry, the paired leaves were separated and each one was placed in a 9 centimeter Petric dish lined with moistened filter paper. Five randomly selected larvae were introduced into each dish and the dishes were closed. The closed dishes were labeled and held at 80°-85° F. for three days. Although the larvae could easily consume the whole leaf within twenty-four hours, no more food was added. Larvae which were unable to move the length of the body, even upon stimulation by prodding, were considered dead. Per cent mortality was recorded for various concentration levels.
as §3

[4] = test system: bean aphid (Aphis fabae Scop.); assay: Bean Aphid Foliage Spray Test; details: 500 ppm foliage spray, 24 hour holding period
Procedure: as §1, §2
Bean Aphid Foliage Spray Test
Adults and nymphal stages of the bean aphid (Aphis fabae Scop.) reared on potted dwarf nasturtium plants at 65°-70° F. and 50-70 per cent relative humidity, constituted the test insects. For testing purposes, the number of aphids per pot was standardized to 100-150 by trimming plants containing excess aphids.
The test compounds were formulated by diluting the stock suspension with water to give a suspension containing 500 parts of test compound per million parts of final formulation.
The potted plants (one pot per compound tested) infested with 100-150 aphids, were placed on a revolving turntable and sprayed with 100-110 milliliters of test compound formulation by use of a DeVilbiss spray gun set at 40 psig. air pressure. This application, which lasted 25 seconds, was sufficient to wet the plants to run-off. As a control, 100-110 milliliters of a water-acetone-emulsifier solution containing no test compound were also sprayed on infested plants. After spraying, the pots were placed on their sides on a sheet of white standard mimeograph paper which had been previously ruled to facilitate counting. Temperature and humidity in the test room during the 24 hour holding period were 65°-70° F. and 50-70 per cent, respectively. Aphids which fell into the paper and were unable to remain standing after being uprighted were considered dead. Aphids remaining on the plants wre observed closely for movement and those which were unable to move the length of the body upon stimulator by prodding were considered dead. Per cent mortality was recorded for various concentration levels.
as §3

[5] = test system: house flies (Musca domestica, L.); assay: Fly Bait Test; details: adults, 500 ppm in sugar bait, twenty four hours
Procedure: as §1, §2
Four to six day old adult house flies (Musca domestica, L.) reared according to the specifications of the Chemical Specialities Manufacturing Association (Blue Book, McNair-Dorland Co., NY., 1954; pages 234-244, 261) under controlled conditions of 80°±5° F. and 50±5 per cent relative humidity, were the test insects. The flies were immobilized by anesthetizing with carbon dioxide and twenty five immobilized individuals, males and females, were transferred to a cage consisting of a standard food stainer about five inches in diameter which was inverted over a wrapping-paper-covered surface. The test compounds were formulated by diluting the stock suspension with a 10 per cent (by weight) sugar solution to give a suspension containing 500 parts of test compound per million parts of final formulation, by weight. Ten milliliters of the test formulation were added to a souffle cup containing a one inch square of an absorbent cotton pad. This bait cup was introduced and centered on the blotting paper under the food strainer prior to admitting the anesthetized flies. The caged flies were allowed to feed on the bait for twenty four hours, at a temperature of 80°±5° F. and the relative humidity of 50±5 per cent.
as §3

| Structure (SMILES) | Mite pesticidal activity rating [1] | Mexican Bean Beetle pesticidal activity rating [2] | Southern Armyworm pesticidal activity rating [3] | Bean Aphid pesticidal activity rating [4] | House-Fly pesticidal activity rating [5] |
| --- | --- | --- | --- | --- | --- |
| CNC(=O)ON=C1SC(=NC2CCCCC2)SC1(C)C [LIV] | B | B | C | A | A |
| CC(C)N=C1SC(=NOC(=O)N(C)SSC(C)(C)C)C(C)(C)S1 [XLIX] | A | A | C | A | A |
| CNC(=O)ON=C1SC(=S)SC1(C)C [LXXI] | B | A | B | A | B |
| CCCCN=C1SC(=NOC(=O)N(C)SC(Cl)(Cl)Cl)C(C)(C)S1 [LIII] | A | A | C | A | A |
| CN(SSC(C)(C)C)C(=O)ON=C1SC(=C(C#N)C#N)SC1(C)C [LXIV] | C | A | B | A | B |
| CN(SN(C)C(=O)ON=C1SC(=C(C#N)C#N)SC1(C)C)C(=O)ON=C1SC(=C(C#N)C#N)SC1(C)C [LXXVII] | C | A | C | C | C |
| CN=C1SC(=NOC(=O)N(C)SC(Cl)(Cl)Cl)C(C)(C)S1 [XLV] | A | A | A | A | A |
| CN=C1SC(=NOC(=O)NC)C(C)(C)S1 [XL, 5,5-Dimethyl-2-methylimino-4-[O-(N-methylcarbamoyl)oximino]-1,3-dithiolane] | A | A | B | A | A |
| CNC(=O)ON=C1SC(=NC#N)SC1(C)C [LXIX] | C | C | C | C | C |
| CN(SC(Cl)(Cl)Cl)C(=O)ON=C1SC(=NC(C)(C)C)SC1(C)C [LI] | B | A | C | A | A |
| CN(C)C(=O)ON=C1SC(=C(C#N)C#N)SC1(C)C [XLIII, 5,5-Dimethyl-2-(dicyanomethylidene)-4-[O-(N,N-dimethylcarbamoyl)oximino]-1,3-dithiolane] | C | B | C | B | B |
| CN(SC(Cl)(Cl)Cl)C(=O)ON=C1SC(=NC#N)SC1(C)C [LXX] | C | C | C | C | C |
| CN(Sc1ccc(C(C)(C)C)cc1)C(=O)ON=C1SC(=C(C#N)C#N)SC1(C)C [LXXIII] | B | A | C | A | C |
| CN(SN1CCOCC1)C(=O)ON=C1SC(=C(C#N)C#N)SC1(C)C [LXXIV] | C | C | B | A | C |

— patent US4156731A, “Heterocyclic oxime compounds and carbamoyloxime derivatives” (priority 1976, dated 1979)
